Measurements reported in ChEMBL document CHEMBL1201862, “PubChem BioAssay data set” (2004).
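Five compound concentrations were applied to cells in 96-well plates for 48 hours; endpoints were derived by simple linear interpolation of the resulting dose-response curve. Here, GI50 denotes the concentration required for 50% inhibition of growth.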 Calls of active or inactive are those of the source. No stated cut-off is given here; in the data, active = GI50 up to about 1.1 µM and inactive = higher.

Tests used:
Test in all cases: NCI tumour cell line growth inhibition, 48 h
U-251 = test system: U-251
CAKI-1 = test system: CAKI-1
SK-MEL-2 = test system: SK-MEL-2
SF-268 = test system: SF-268
SN12C = test system: SN12C
LOX IMVI = test system: LOX IMVI
SF-539 = test system: SF-539
NCI-H460 = test system: NCI-H460
BT-549 = test system: BT-549
OVCAR-8 = test system: OVCAR-8
SK-MEL-28 = test system: SK-MEL-28
786-0 = test system: 786-0
EKVX = test system: EKVX
NCI-H23 = test system: NCI-H23
PC-3 = test system: PC-3
MDA-MB-435 = test system: MDA-MB-435
MDA-N = test system: MDA-N
Malme-3M = test system: Malme-3M
HCC 2998 = test system: HCC 2998

Measured: GI50

CN(C)CCCN=C(N)N
inactive: U-251 > 100 µM | CAKI-1 > 100 µM | SK-MEL-2 > 100 µM | SF-268 > 100 µM | SN12C > 100 µM | LOX IMVI > 100 µM | SF-539 > 100 µM | NCI-H460 > 100 µM | BT-549 > 100 µM | OVCAR-8 > 100 µM | SK-MEL-28 > 100 µM | 786-0 > 100 µM | EKVX > 100 µM | NCI-H23 > 100 µM | PC-3 > 100 µM | MDA-MB-435 > 100 µM | MDA-N > 100 µM | Malme-3M > 100 µM

C1CC2CN(CCCN3CCOCC3)C(C1)O2 (stereo not given)
inactive: U-251 > 100 µM | CAKI-1 > 100 µM | SK-MEL-2 > 100 µM | SF-268 > 100 µM | SN12C > 100 µM | LOX IMVI > 100 µM | SF-539 > 100 µM | NCI-H460 > 100 µM | BT-549 > 100 µM | OVCAR-8 > 100 µM | SK-MEL-28 > 100 µM | 786-0 > 100 µM | EKVX > 100 µM | NCI-H23 > 100 µM | PC-3 > 100 µM | MDA-MB-435 > 100 µM | MDA-N > 100 µM | Malme-3M > 100 µM

SCc1ccc(CS)s1
inactive: U-251 > 100 µM | SF-268 > 100 µM | SN12C > 100 µM | LOX IMVI > 100 µM | SF-539 > 100 µM | NCI-H460 > 100 µM | BT-549 > 100 µM | OVCAR-8 > 100 µM | SK-MEL-28 > 100 µM | 786-0 > 100 µM | EKVX > 100 µM | NCI-H23 > 100 µM | PC-3 > 100 µM | MDA-MB-435 > 100 µM | MDA-N > 100 µM | HCC 2998 > 100 µM

CC(C(=O)c1ccccc1)C(c1ccccc1)N1CCOCC1 (stereo not given)
inactive: U-251 > 100 µM | CAKI-1 > 100 µM | SK-MEL-2 > 100 µM | SF-268 > 100 µM | SN12C > 100 µM | LOX IMVI > 100 µM | SF-539 > 100 µM | NCI-H460 > 100 µM | BT-549 > 100 µM | OVCAR-8 > 100 µM | SK-MEL-28 > 100 µM | 786-0 > 100 µM | EKVX > 100 µM | NCI-H23 > 100 µM | PC-3 > 100 µM | MDA-MB-435 > 100 µM | MDA-N > 100 µM | Malme-3M > 100 µM
